Measured values reported in PubChem BioAssay AID2305 (GlaxoSmithKline (GSK), 2010).
“And” between values parts separate entries of the source, which are not always exact repeats. Equal values may be shown once.

tested on: P. falciparum 3D7 growth, pLDH absorbance; test: P. falciparum 3D7 growth inhibition, dose response, strain 3D7 (AID 2305)

Compound	IC50
CCNc1cc(C(=O)N[C@@H](Cc2cccc(F)c2)[C@H](O)CNC(C)CCCC(C)C)cc(N2CCCCS2(=O)=O)c1 (some centres not stated)	0.6 µM
Cc1cc(NCCc2ccccc2)nc(/N=C(\N)Nc2cccc(Cl)c2)n1	0.18 µM
Cc1cc(N(C)C)nc(Nc2ccc(NC(=O)CCc3ccccc3)cc2)n1	0.85 µM
Cc1[nH]c(C)c(-c2ccc(OCCCCSc3ccncc3)cc2)c(=O)c1Br	0.25 µM
CCCCOC(=O)c1ccc(Nc2cc(C)nc3ccc(OC)cc23)cc1	0.64 µM
Cc1nnsc1C(=O)Nc1ccc(-c2cccc(-c3nc4ccc(F)cc4[nH]3)c2)cc1	0.77 µM
COc1ccc(-c2nc3ccc(C)nc3nc2-c2ccc(OC)cc2)cc1	1.11 µM
COC(=O)C(Cc1ccccc1)NC(=O)NC1CCN(c2ccnc(Nc3ccc(F)cc3)n2)C1 (configuration not stated)	1.09 µM
COc1ccc(NCc2cccc(-c3cccc(CNCCc4ccccc4)c3)c2)cc1	1.05 µM
CC(C)CNC(=O)c1cncc(-c2cccc(CNC3Cc4ccccc4C3)c2)c1	0.79 µM
c1ccc(Oc2ccc(Nc3ccnc4cc(-c5csc(CNCCN6CCOCC6)n5)ccc34)cc2)cc1	0.71 µM
CCN(CC)CCON=Cc1cc(C)c2[nH]c3ccc(OCc4ccccc4)cc3c2c1C	0.97 µM
COc1ccc(CN2CCC(C(=O)Nc3cccc(-c4cccc(Cl)c4)c3)CC2)cc1O	0.97 µM
O=C(NC1CC1)c1ccc(N2CCOc3ccc(Cl)cc32)s1	0.8 µM
CC[C@H]1CN2CC[C@@H]1C[C@H]2[C@H](O)c1cc(N2CCC(CO)CC2)nc2ccc(OC)cc12	0.16 µM
NC(=O)c1ccsc1NC(=O)CNC(c1ccccc1)c1ccc(Cl)cc1 (configuration not stated)	0.26 µM
COc1cc(C(=O)Nc2ccc(-c3nc4ccccc4[nH]3)cc2)cc(OC)c1OC	0.98 µM
COc1ccc2nccc(CCN3C[C@H](CNCc4ccc5c(n4)NC(=O)CS5)[C@H](O)C3)c2n1	1.46 µM
CCNC(C)(C)CN(Cc1ccc(-c2ccc(C(F)(F)F)cc2)cc1)C(=O)Cn1c(SCc2ccc(F)cc2)nc(=O)c2c1CCC2	0.99 µM

Compound	IC50
CC(=O)Nc1ccc(CN2CCC(CNC(=O)c3cc(-c4cccc(C(F)(F)F)c4)cs3)C2)cc1 (configuration not stated)	1.1 µM
Cc1cc(NN=Cc2ccccc2)c2cc(C(F)(F)F)ccc2n1	0.15 µM
O=C(Nc1ccc(O)c(-c2nc3ccccc3[nH]2)c1)c1ccc([N+](=O)[O-])cc1	0.32 µM
COc1ccccc1C1CCN(C2CCC(NC(=O)/C=C/c3cc(C(F)(F)F)cc(C(F)(F)F)c3)CC2)CC1 (configuration not stated)	1.2 µM
Cc1noc(C)c1-c1cccc(CNCc2cccc(-c3cccc(-c4nc5ccc(C(F)(F)F)cc5[nH]4)c3)c2)c1	0.46 µM
CCN(CC)CCN(Cc1ccc(-c2ccc(C(F)(F)F)cc2)cc1)C(=O)Cn1c(CCc2c(F)cccc2F)nc(=O)c2ccccc21	0.64 µM
Oc1ccc2[nH]c(-c3cccc(F)c3)nc2c1CN1CCCC1	0.8 µM
CC1(C)CCC(C)(C)c2c1ccc(C1CCN(CCCCNC(=O)c3ccc(-c4ccc(C#N)cc4)cc3)CC1)c2O	0.23 µM
NC(N)=NN=Cc1cc([N+](=O)[O-])ccc1Sc1ccccc1CO	1.46 µM
Cn1nc(-c2cccc(CN[C@@H]3CCc4ccc(O)cc43)c2)c2cnc(NCCCN3CCCC3)nc21	0.83 µM
FC(F)(F)COc1ccc(CNCCCCCCNCc2ccc(OCC(F)(F)F)c3ccccc23)c2ccccc12	0.4 µM
CN(c1ccccc1C(=O)Nc1cc(Cl)ccc1Oc1ccccc1)S(=O)(=O)c1ccccc1	0.74 µM
Cc1cccc2[nH]c(-c3ccc(-c4cccc(CN5CCC(C(N)=O)CC5)c4)s3)nc12	1.26 µM
O=C(C=Cc1ccc(F)c(Br)c1)NC1CCC(CN2CCC(c3c[nH]c4ccccc34)CC2)CC1 (configuration not stated)	0.79 µM and 0.84 µM
FC(F)(F)c1ccccc1OCc1cc(-c2ccncc2)c(COc2ccccc2C(F)(F)F)cc1C1=CCNCC1	0.89 µM
CS(=O)(=O)c1ccc2c(c1)CCN(CCC1CCC(NC(=O)C(=Cc3ccc(Cl)cc3Cl)c3ccc(-c4ccccc4)cc3)CC1)CC2 (configuration not stated)	1.17 µM
CCn1c(-c2nc(-c3ccc4c(c3)OCO4)cnc2N)nc2cnccc21	0.43 µM
CCCCCN1CCC(NS(=O)(=O)c2cccc(C(=O)Nc3cccc(C(F)(F)F)c3)c2)C1 (configuration not stated)	0.83 µM
